Source: patent US20150336889A1, “INDOLE DERIVATIVES, PHARMACEUTICAL COMPOSITIONS CONTAINING SUCH INDOLES AND THEIR USE AS DNA METHYLATION MODULATORS” (IKERCHEM, S.L., priority 2012, published 2015)

Assays:
A-431 = experiment: Cancer cell growth inhibition, A-431; assay type: cell-based; details: Homo sapiens; Epidermoid, A-431, cell viability, 72 h
Protocol: (§1) Cell culture-based assays were used to evaluate the ability of compounds of the invention to inhibit cancer cell growth inhibition.
(§2) Cells were obtained from the American Type Culture Collection (ATCC) and European Collection of Cell Cultures (ECACC).
(§3) Cells were thawed in their appropriate media plus supplements (see table below). Cells were passaged at confluence by washing once in HBSS cation-free followed by a 3 minutes incubation with trypsin ([0.5 μg/ml]/EDTA [0.2 μg/ml]) (Gibco-BRL, 15400054) solution in HBSS at 37° C. (except non-adherent cell lines), and transferred to their appropriate media plus supplements. Prior to seeding at defined cell concentration, cells were recovered in medium, centrifuged and taken up in medium, and counted.
(§4) Cells were plated at 3000/5000/10000 cells/well in 100 μl media in tissue culture 96 well plates (Cultek). After 24 h, media was supplemented by 100 μl/well of diluted IPDNs at 100 μM.
(§5) The Hexosaminidase assay was used for the adherent cell lines, whereas the AlamarBlue® assay was used for the non-adherent cell lines.
(§6) Dose-response curves were generated by serial dilutions (1:1) of the compounds. […] Reagent blanks, containing media plus colorimetric reagent without cells were run on each plate. Blank values were subtracted from test values and were routinely 5-10% of uninhibited control values. Plates were incubated 72 h, and living cell number was determined by AlamarBlue® and Hexosaminidase test. The advantages of using those assays are that both can be done in the same microwell plate. AlamarBlue® assay: plates were incubated 72 h and living cell number was determined by AlamarBlue (Biosource DAL1100). After 4 h incubation at 37° C., relative fluorescent intensity, which correlates with the number of living cells, was read in a Cytofluor plate reader (Millipore) at 535/590 nm (Excitation/emission). The hexosaminidase activity was measured according to the following protocol: the media was removed and cells were washed once with PBS.
(§7) Data analysis was done by calculating the percentage of cell viability normalized in front of negative control values, which were considered as a 100%. The curve was adjusted using a sigmoidal dose-response (variable slope) equation and EC50 values were obtained from the equation
(§8) where, X is the logarithm of concentration. Y is the response. Bottom is the Y value at the bottom plateau Top is the Y value at the top plateau LogEC50 is the X value when the response is halfway between Bottom and Top. With different kinds of variables, this variable is sometimes called ED50 (effective dose, 50%), or IC50 (inhibitory concentration, 50%, used when the curve goes downhill).

U-87MG = experiment: Cancer cell growth inhibition, U-87MG; assay type: cell-based; details: Homo sapiens, Brain, cell viability, 72 h
Protocol: as §1, §2, §3, §4, §5, §6, §7, §8

Jurkat = experiment: Cancer cell growth inhibition, Jurkat; assay type: cell-based; details: Homo sapiens, Hematologic, cell viability, 72 h
Protocol: as §1, §2, §3, §4, §5, §6, §7, §8

NCI-H1975 = experiment: Cancer cell growth inhibition, NCI-H1975; assay type: cell-based; details: Homo sapiens; Lung, NCI-H1975, cell viability, 72 h
Protocol: as §1, §2, §3, §4, §5, §6, §7, §8

HeLa = experiment: Cancer cell growth inhibition, HeLa; assay type: cell-based; details: Homo sapiens, Cervical, cell viability, 72 h
Protocol: as §1, §2, §3, §4, §5
as §6, with “PBS. […]” for “PBS.”

Panc-1 = experiment: Cancer cell growth inhibition, Panc-1; assay type: cell-based; details: Homo sapiens; Pancreatic, Panc-1, cell viability, 72 h
Protocol: as §1, §2, §3, §4, §5, §6, §7, §8

LnCaP = experiment: Cancer cell growth inhibition, LnCaP; assay type: cell-based; details: Homo sapiens, Prostate, cell viability, 72 h
Protocol: as §1, §2, §3, §4, §5, §6, §7, §8

BxPC3 = experiment: Cancer cell growth inhibition, BxPC3; assay type: cell-based; details: Homo sapiens, BXPC-3; Pancreatic, BxPC3, cell viability, 72 h
Protocol: as §1, §2, §3, §4, §5
as §6, with “PBS. […]” for “PBS.”

HCT-116 = experiment: Cancer cell growth inhibition, HCT-116; assay type: cell-based; details: Homo sapiens; Colorectal, HCT-116, cell viability, 72 h
Protocol: as §1, §2, §3, §4, §5, §6, §7, §8

NCI-H358 = experiment: Cancer cell growth inhibition, NCI-H358; assay type: cell-based; details: Homo sapiens; Lung, NCI-H358, cell viability, 72 h
Protocol: as §1, §2, §3, §4, §5, §6, §7, §8

U-373MG = experiment: Cancer cell growth inhibition, U-373MG; assay type: cell-based; details: Homo sapiens, U373 MG, Brain, cell viability, 72 h
Protocol: as §1, §2, §3, §4, §5
as §6, with “PBS. […]” for “PBS.”

MDA-MB-435 = experiment: Cancer cell growth inhibition, MDA-MB-435; assay type: cell-based; details: Homo sapiens; Melanoma, MDA-MB-435, cell viability, 72 h
Protocol: as §1, §2, §3, §4, §5, §6, §7, §8

SK-BR-3 = experiment: Cancer cell growth inhibition, SK-BR-3; assay type: cell-based; details: Homo sapiens; Breast, SK-BR-3, cell viability, 72 h
Protocol: as §1, §2, §3, §4, §5
as §6, with “PBS. […]” for “PBS.”

MCF-7 = experiment: Cancer cell growth inhibition, MCF-7; assay type: cell-based; details: Homo sapiens, MCF7; Breast, MCF-7, cell viability, 72 h
Protocol: as §1, §2, §3, §4, §5, §6, §7, §8

Daoy = experiment: Cancer cell growth inhibition, Daoy; assay type: cell-based; details: Homo sapiens, Brain, cell viability, 72 h
Protocol: as §1, §2, §3, §4, §5, §6, §7, §8

HT-1080 = experiment: Cancer cell growth inhibition, HT-1080; assay type: cell-based; details: Homo sapiens; HT-1080, cell viability, 72 h
Protocol: as §1, §2, §3, §4, §5, §6, §7, §8

Human DNMT1 = biological target: T1, Human DNMT1 (Homo sapiens, UniProt P26358); experiment: DNMT1 enzymatic activity inhibition, radioisotope-based 3H-SAM filter binding assay; assay type: biochemical; details: 1 μM SAM, 25 nM DNMT1, 0.005 mg/ml Poly(dI-dC), 30° C. 1 hour, 10-dose
T1 construct: a-a 2-1632, with N-terminal GST tag; GST (N)
Protocol: The inhibition of the enzymatic activity of DNMT1 was tested using low volume radioisotope-based assay which uses tritium-labeled AdoMet (^3H-SAM) as a methyl donor. Inhibitors diluted in DMSO were added by using acoustic technology (Echo550, Labcyte Inc. Sunnyvale, Calif.) into enzyme/substrate mixture in nano-liter range. The reaction was initiated by the addition of ^3H-SAM, and incubated at 30° C. for 1 hour. Total final methylations on the substrate poly(dI-dC) were detected by a filter binding approach. Data analysis was performed using GraphPad Prism software (La Jolla, Calif.) for IC50 curve fits.

RAMOS = experiment: Cancer cell growth inhibition, RAMOS; assay type: cell-based; details: Homo sapiens, Hematologic, cell viability, 72 h
Protocol: as §1, §2, §3, §4, §5, §6, §7, §8

CCFR-CEM = experiment: Cancer cell growth inhibition, CCFR-CEM; assay type: cell-based; details: Hematologic, cell viability, 72 h
Protocol: as §1, §2, §3, §4, §5, §6, §7, §8

A-549 = experiment: Cancer cell growth inhibition, A-549; assay type: cell-based; details: Homo sapiens, A549; Lung, A-549, cell viability, 72 h
Protocol: as §1, §2, §3, §4, §5, §6, §7, §8

MiaPaCa-2 = experiment: Cancer cell growth inhibition, MiaPaCa-2; assay type: cell-based; details: Homo sapiens, MIA PaCa-2; Pancreatic, MiaPaCa-2, cell viability, 72 h
Protocol: as §1, §2, §3, §4, §5, §6, §7, §8

T1 sequence (P26358 2-1632 isoform P26358-2): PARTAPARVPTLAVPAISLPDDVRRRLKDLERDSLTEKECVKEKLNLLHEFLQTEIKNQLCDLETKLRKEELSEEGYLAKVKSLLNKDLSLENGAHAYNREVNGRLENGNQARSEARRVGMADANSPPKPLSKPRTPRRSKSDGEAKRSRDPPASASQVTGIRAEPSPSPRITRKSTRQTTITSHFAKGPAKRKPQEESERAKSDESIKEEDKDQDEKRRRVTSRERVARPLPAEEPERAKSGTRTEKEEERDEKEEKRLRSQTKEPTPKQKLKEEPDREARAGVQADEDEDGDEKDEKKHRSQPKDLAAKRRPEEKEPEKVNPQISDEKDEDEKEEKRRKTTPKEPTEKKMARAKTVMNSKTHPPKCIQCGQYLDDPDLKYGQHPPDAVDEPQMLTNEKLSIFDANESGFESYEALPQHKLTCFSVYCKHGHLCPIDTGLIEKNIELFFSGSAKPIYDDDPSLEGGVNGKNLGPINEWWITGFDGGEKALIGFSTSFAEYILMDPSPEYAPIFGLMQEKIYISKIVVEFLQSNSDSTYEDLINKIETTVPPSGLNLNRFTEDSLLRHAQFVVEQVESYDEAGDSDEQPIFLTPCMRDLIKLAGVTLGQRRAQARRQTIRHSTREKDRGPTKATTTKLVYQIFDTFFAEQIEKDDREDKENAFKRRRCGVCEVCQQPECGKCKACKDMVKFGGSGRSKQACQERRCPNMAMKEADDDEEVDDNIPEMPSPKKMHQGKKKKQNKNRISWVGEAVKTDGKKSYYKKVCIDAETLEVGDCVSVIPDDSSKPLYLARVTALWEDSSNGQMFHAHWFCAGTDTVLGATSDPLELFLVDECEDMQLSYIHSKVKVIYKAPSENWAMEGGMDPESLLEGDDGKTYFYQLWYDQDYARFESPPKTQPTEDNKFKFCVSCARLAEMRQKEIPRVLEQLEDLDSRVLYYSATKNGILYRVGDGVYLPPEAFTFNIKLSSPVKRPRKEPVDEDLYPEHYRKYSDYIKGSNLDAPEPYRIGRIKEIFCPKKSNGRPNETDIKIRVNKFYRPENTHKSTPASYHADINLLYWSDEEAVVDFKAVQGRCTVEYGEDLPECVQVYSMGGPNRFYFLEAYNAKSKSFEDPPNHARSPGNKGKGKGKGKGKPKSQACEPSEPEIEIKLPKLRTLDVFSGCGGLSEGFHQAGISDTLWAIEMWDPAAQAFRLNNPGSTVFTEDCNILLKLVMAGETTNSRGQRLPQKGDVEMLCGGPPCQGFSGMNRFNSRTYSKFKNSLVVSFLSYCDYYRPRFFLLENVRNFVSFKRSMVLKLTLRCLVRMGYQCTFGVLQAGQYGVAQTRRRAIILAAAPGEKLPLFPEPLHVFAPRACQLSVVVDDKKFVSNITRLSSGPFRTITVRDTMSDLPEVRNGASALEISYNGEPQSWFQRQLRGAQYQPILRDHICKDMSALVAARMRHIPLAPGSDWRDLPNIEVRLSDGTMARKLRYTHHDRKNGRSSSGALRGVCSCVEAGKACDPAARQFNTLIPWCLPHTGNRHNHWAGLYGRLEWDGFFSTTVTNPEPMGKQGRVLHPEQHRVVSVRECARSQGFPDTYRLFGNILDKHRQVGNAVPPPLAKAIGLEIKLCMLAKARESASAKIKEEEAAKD

## COc1ccc2c(-c3ccc(O)c(O)c3)cn(CC(=O)c3ccc(O)c(O)c3)c2c1 [Example 4, 1-(3,4-dihydroxyphenyl)-2-[3-(3,4-dihydroxyphenyl)-6-methoxy-1H-indol-1-yl]ethanone]
A-431
  EC50: 30 µM
U-87MG
  EC50: 20 µM
Jurkat
  EC50: 24 µM
NCI-H1975
  EC50: 46 µM
HeLa
  EC50: 36 µM
Panc-1
  EC50: 27 µM
LnCaP
  EC50: 28 µM
BxPC3
  EC50: 53 µM
HCT-116
  EC50: 51 µM
NCI-H358
  EC50: 11 µM
U-373MG
  EC50: 21 µM
MDA-MB-435
  EC50: 14 µM
SK-BR-3
  EC50: 20 µM
MCF-7
  EC50: 30 µM
Daoy
  EC50: 47 µM
HT-1080
  EC50: 31 µM
Human DNMT1
  IC50: 13.8 µM
RAMOS
  EC50: 51 µM
CCFR-CEM
  EC50: 45 µM
A-549
  EC50: 97 µM
MiaPaCa-2
  EC50: 66 µM
